Test results reported in patent US8022091B2, “Triazole derivative” (Taisho Pharmaceutical Co., Ltd., priority 2006, dated 2011).
Several values for one entry are separate records, joined by “and”; a condition that tells them apart may be missing. Equal entries are not always repeated.

Experiments:
human Edg-1 (S1P1) = target: T1, human Edg-1 (S1P1) (Homo sapiens, UniProt P21453); assay: S1P1 binding assay: inhibition of [33P]-S1P binding to membrane fraction of HEK-293 cells transferred with the human Edg-1 (S1P1) gene; details: for IC50: [33P]-S1P 0.1 nM, human Edg-1 (S1P1) HEK-293 membrane fraction, 1 h at 30° C., read-out: IC50 (concentration at which binding in the absence of the test compound was inhibited by 50%)
T1 construct: expressed in transfected cells; host or cells: HEK-293
T1 sequence (P21453 whole entry): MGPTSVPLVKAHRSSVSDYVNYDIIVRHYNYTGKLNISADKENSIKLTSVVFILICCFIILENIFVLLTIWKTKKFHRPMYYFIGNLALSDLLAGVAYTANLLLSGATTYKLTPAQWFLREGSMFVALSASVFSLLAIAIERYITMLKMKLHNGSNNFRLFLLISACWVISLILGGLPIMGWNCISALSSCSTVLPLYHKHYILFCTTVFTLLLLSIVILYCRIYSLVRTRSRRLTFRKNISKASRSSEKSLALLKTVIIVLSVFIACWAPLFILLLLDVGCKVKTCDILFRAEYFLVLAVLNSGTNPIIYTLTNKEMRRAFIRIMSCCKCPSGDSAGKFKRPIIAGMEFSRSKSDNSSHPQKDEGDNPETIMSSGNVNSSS
Outline: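 Membranes from S1P1-transfected HEK-293 cells incubated 1 h at 30° C in pH 7.4 Tris buffer with fatty acid-free BSA, 0.1 nM [33P]-S1P and test compound (0.1% DMSO). Filter-bound radioactivity was counted; inhibition corrected for binding to untransfected-cell membranes, and IC50 derived from concentration series.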

[1] = test compound at 10 μM, inhibition of [33P]-S1P binding to the membrane fraction of HEK-293 cells expressing human Edg-1 (S1P1)
[2] = test compound 10 μM, inhibition of [33P]-S1P binding, membrane fraction

Row | SMILES | inhibition at 10 µM (human Edg-1 (S1P1); [1]) [%] | melting point [°C] | IC50 (human Edg-1 (S1P1)) | inhibition at 10 µM (human Edg-1 (S1P1); [2]) [%]
1 | CCn1c(Oc2cccc(N)c2)nnc1[C@@H](C)NS(=O)(=O)c1ccc(Cl)c(Cl)c1 [Compound 82, N-[(R)-1-[5-(3-Amino-phenoxy)-4-ethyl-4H-[1,2,4]triazol-3-yl]-ethyl]-3,4-dichlorobenzenesulfonamide] | 101 | 142 to 145 | – | –
2 | Cc1ccc(Oc2nnc([C@@H](C)NS(=O)(=O)c3ccc(Cl)c(Cl)c3)n2C)cc1 [Compound 58] | 99.7 | 181 to 183 | – | –
3 | CCn1c(Oc2cccc(N3CCN(CCN(C)C)CC3)c2)nnc1[C@@H](C)NS(=O)(=O)c1ccc(Cl)c(Cl)c1 [Compound 83] | 101 | 170 to 173 | 0.0081 µM | –
4 | CCn1c(Oc2cccc(OC)c2)nnc1[C@@H](C)NS(=O)(=O)c1ccc(Cl)c(Cl)c1 [Compound 69] | 103 | 119 to 120.5 | ≤ 0.035 µM | –
5 | CCn1c(Oc2ccc(C)cc2)nnc1[C@@H](Cc1ccccc1)NS(=O)(=O)c1ccc(Cl)c(Cl)c1 [Compound 10] | 99.8 | 182.5 to 184.5 | 0.0175 µM | –
6 | CCn1c(Oc2ccc3sc(C)nc3c2)nnc1[C@@H](C)NS(=O)(=O)c1ccc(Cl)c(Cl)c1 [Compound 46] | 94.6 | 247 to 250 | ≤ 0.035 µM and 0.0285 µM | –
7 | CCn1c(Oc2cc(C)cc(C)c2)nnc1[C@@H](C)NS(=O)(=O)c1ccc(Cl)c(Cl)c1 [Compound 19] | 97.9 | 145 to 150 | – | –
8 | CCn1c(Oc2ccc(-c3ccccc3)cc2)nnc1[C@@H](C)NS(=O)(=O)c1ccc(Cl)c(Cl)c1 [Compound 29] | 101 | 177 to 178.5 | – | –
9 | CCn1c(Oc2ccc(Cl)c(C)c2)nnc1[C@@H](C)NS(=O)(=O)c1ccc(Cl)c(Cl)c1 [Compound 26] | 97.9 | 159 to 164 | ≤ 0.035 µM | –
10 | CCn1c(Oc2ccc3cccnc3c2)nnc1[C@@H](C)NS(=O)(=O)c1ccc(Cl)c(Cl)c1 [Compound 72] | 99 | 198 to 200.5 | – | –
11 | CCn1c(Oc2cccc(N3CCC3)c2)nnc1[C@@H](C)NS(=O)(=O)c1ccc(Cl)c(Cl)c1 [Compound 75] | 95 | 177 to 179 | ≤ 0.01 µM | –
12 | CCn1c(Oc2ccc(C3CCCCC3)cc2)nnc1[C@@H](C)NS(=O)(=O)c1ccc(Cl)c(Cl)c1 [Compound 15] | 103 | 200 to 205 | 0.0325 µM | –
13 | CCn1c(Oc2ccc(F)c(F)c2)nnc1[C@@H](C)NS(=O)(=O)c1ccc(Cl)c(Cl)c1 [Compound 44] | 100 | 140 to 145.5 | – | –
14 | CCn1c(Oc2ccc(N3CCCC3)cc2)nnc1[C@@H](C)NS(=O)(=O)c1ccc(Cl)c(Cl)c1 [Compound 49] | 102 | 198 to 199 | 0.006 µM | –
15 | CCn1c(Oc2cccc(-n3ccnc3)c2)nnc1[C@@H](C)NS(=O)(=O)c1ccc(Cl)c(Cl)c1 [Compound 85] | 100 | 133 to 134 | – | –
16 | CCn1c(Oc2cccc(Cl)c2)nnc1[C@@H](C)NS(=O)(=O)c1ccc(Cl)c(Cl)c1 [Compound 9] | 100 | 145 to 148 | – | –
17 | CCn1c(Oc2ccc3[nH]c(C)cc3c2)nnc1[C@@H](C)NS(=O)(=O)c1ccc(Cl)c(Cl)c1 [Compound 65] | 105 | 201 to 202 | – | –
18 | COc1ccc(Oc2nnc([C@@H](C)NS(=O)(=O)c3ccc(Cl)c(Cl)c3)n2C2CC2)cc1 [Compound 38] | 105 | 148.5 to 150 | 0.0117 µM | –
19 | CCn1c(Oc2ccc(N(C)C)cc2)nnc1[C@@H](C)NS(=O)(=O)c1ccc(Cl)c(Cl)c1 [Compound 43] | 99.8 | 182.5 to 185 | ≤ 0.035 µM | –
20 | CCn1c(Oc2ccccc2C)nnc1[C@@H](C)NS(=O)(=O)c1ccc(Cl)c(Cl)c1 [Compound 4] | 95.7 | 198.5 to 200.5 | – | –
21 | CCn1c(Oc2cccc(C)c2)nnc1[C@@H](C)NS(=O)(=O)c1ccc(Cl)c(Cl)c1 [Compound 5] | 97.3 | 160 to 161 | ≤ 0.035 µM | –
22 | CCn1c(Oc2ccc(Cl)cc2)nnc1[C@@H](C)NS(=O)(=O)c1ccc(Cl)c(Cl)c1 [Compound 8] | 100 | 179 to 189.5 | 0.0185 µM | –
23 | CCn1c(Oc2ccc(C)cn2)nnc1[C@@H](C)NS(=O)(=O)c1ccc(Cl)c(Cl)c1 [Compound 67] | 95.5 | 182 to 188 | – | –
24 | CCn1c([C@@H](C)NS(=O)(=O)c2ccc(Cl)c(Cl)c2)nnc1S(=O)(=O)c1ccc(C)cc1 [Compound 57, 3,4-Dichloro-N-[(R)-1-[4-ethyl-5(4-methylbenzenesulfonyl)-4H-[1,2,4]triazol-3-yl]-ethyl]-benzenesulfonamide] | – | 164 to 165 | – | –
25 | CCn1c(Oc2cccc(NC(C)=O)c2)nnc1[C@@H](C)NS(=O)(=O)c1ccc(Cl)c(Cl)c1 [Compound 84] | 100 | 160 to 165 | – | –

Continued, values first:

Row | inhibition at 10 µM (human Edg-1 (S1P1); [1]) [%] | melting point [°C] | IC50 (human Edg-1 (S1P1)) | inhibition at 10 µM (human Edg-1 (S1P1); [2]) [%] | SMILES
26 | 110 | 132 to 134 | – | – | CCn1c(Oc2cccc(OCCN(C)C)c2)nnc1[C@@H](C)NS(=O)(=O)c1ccc(Cl)c(Cl)c1 [Compound 106]
27 | 102 | 103 to 105.5 | 0.025 µM | – | CCn1c(Oc2cc(C(C)C)n(C)n2)nnc1[C@@H](C)NS(=O)(=O)c1ccc(Cl)c(Cl)c1 [Compound 99]
28 | – | 198 to 200 | ≤ 0.01 µM | 102 | CCn1c(Oc2cccc(N3CCN(C)CC3)c2)nnc1[C@@H](C)NS(=O)(=O)c1ccc2c(I)cccc2c1 [Compound 690]
29 | – | 131.5 to 132.5 | ≤ 0.01 µM | 100 | CCn1c(Oc2cccc(N3CCN(C(C)C)CC3)c2)nnc1[C@@H](C)NS(=O)(=O)c1ccc2cccc(Cl)c2c1 [Compound 669]
30 | 102 | 154.5 to 155.5 | 0.0019 µM | – | CCn1c(Oc2cccc(NS(C)(=O)=O)c2)nnc1[C@@H](C)NS(=O)(=O)c1ccc2c(Cl)cccc2c1 [Compound 148]
31 | – | 218 to 221.5 | – | 85.4 | CCn1c(Oc2cccc(N3CCN(C)CC3)c2)nnc1[C@@H](C)NS(=O)(=O)c1ccc2cc(Cl)ccc2c1 [Compound 664]
32 | 101 | 150 to 152 | ≤ 0.035 µM | – | CCn1c(Oc2cccc(N3CCN(C)CC3)c2)nnc1[C@@H](C)NS(=O)(=O)c1cc(F)cc(Cl)c1C [Compound 145]
33 | 104 | 159 to 162 | ≤ 0.01 µM | – | CCn1c(Oc2cccc(N(C(C)C)C(C)C)c2)nnc1[C@@H](C)NS(=O)(=O)c1ccc(Cl)c(Cl)c1 [Compound 107]
34 | – | 220.5 to 221 | – | 92.7 | CCn1c(Oc2cccc(N3CCN(C)CC3)c2)nnc1C1(NS(=O)(=O)c2ccc(Cl)c(Cl)c2)CC1 [Compound 686]
35 | – | 169.5 to 171.5 | – | – | CCn1c(Oc2ccc(F)cc2)nnc1[C@@H](C)N(CC(=O)O)S(=O)(=O)c1ccc(Cl)c(Cl)c1 [Compound 684]
36 | – | 228 to 228.5 | – | 76.6 | CCn1c(Oc2ccc(F)cc2)nnc1C(C)(C)NS(=O)(=O)c1ccc(Cl)c(Cl)c1 [Compound 682]
37 | 96.5 | 100 to 106 | 0.0081 µM | – | CCn1c(Oc2ccc3cc[nH]c3c2)nnc1[C@@H](C)NS(=O)(=O)c1ccc(C(F)(F)F)cc1 [Compound 136]
38 | 103 | 141 to 143 | ≤ 0.01 µM | – | CCn1c(Oc2cccc(NS(C)(=O)=O)c2)nnc1[C@@H](C)NS(=O)(=O)c1ccc2ccccc2c1 [Compound 147]
39 | 104 | 187.5 to 188.5 | – | – | CCn1c(Oc2ccc(F)cc2)nnc1[C@@H](C)NS(=O)(=O)c1ccc(Br)c(C)c1 [Compound 110]
40 | 101 | 175 to 180 | 0.018 µM | – | CCn1c(Oc2cccc(C3CCN(C(C)C)CC3)c2)nnc1[C@@H](C)NS(=O)(=O)c1ccc(Cl)c(Cl)c1 [Compound 108]
41 | – | 207 to 208 | ≤ 0.01 µM | 99.2 | CCn1c(Oc2cccc(N3CCN(C)CC3)c2)nnc1[C@@H](C)NS(=O)(=O)c1ccc2c(Br)cccc2c1 [Compound 667]
42 | 95.2 | 187 to 187.5 | – | – | CCn1c(Oc2ccc(F)cc2)nnc1[C@@H](C)NS(=O)(=O)c1ccc(Br)c(Br)c1 [Compound 104]
43 | – | – | – | 86.5 | CCn1c(Oc2ccc3cc[nH]c3c2)nnc1[C@@H](C)NS(=O)(=O)c1cc(F)c(F)cc1F [Compound 427]
44 | – | – | – | 92.4 | CCn1c(Oc2cccc(N3CCN(C)CC3)c2)nnc1[C@@H](C)NS(=O)(=O)c1c(C)c(C)c(C)c(C)c1C [Compound 561]
45 | – | – | ≤ 0.01 µM | 101 | CCC(NS(=O)(=O)c1ccc2c(Cl)cccc2c1)c1nnc(Oc2cccc(N3CCN(C)CC3)c2)n1CC (stereo not drawn) [Compound 671]
46 | – | – | – | 93.1 | CCn1c(Oc2cccc(N3CCN(C)CC3)c2)nnc1[C@@H](C)NS(=O)(=O)c1ccc(F)cc1Br [Compound 609]
47 | – | – | – | 75.3 | CCn1c(Oc2ccc3cc[nH]c3c2)nnc1[C@@H](C)NS(=O)(=O)c1cc(OC)ccc1OC [Compound 400]
48 | 73 | – | – | – | CCn1c(Oc2ccc(F)cc2)nnc1[C@@H](C)NS(=O)(=O)c1ccc(C(F)(F)F)cc1Br [Compound 270]
